Values of other authors, collected in patent US11510960B2, “Biofilm disrupting composition for use on chronic wounds” (Whiteley Corporation Pty Ltd, priority 2016, dated 2022).

System: P. aeruginosa biofilm from venous leg ulcers

gentamicin
reduction in concentration in relation to the control biofilm (biofilm 24 hours post-debridement, antibiotic treatment): nine-fold | average log reduction in bacteria after antibiotic treatment (mature (pre-study) biofilm, three patients with non-healing venous leg ulcers): 4 log
